# In patent publication US20180327719A1, “METHOD FOR PRODUCING PANCREATIC BUD CELLS” (Kyoto University, priority 2015, published 2018):
# Columns and labels:
# Type in all cases: cell-based, human
# [1] = system: PDX1, PTF1A, and NKX6.1 genes; assay: Quantitative PCR of PDX1, PTF1A and NKX6.1 gene expression during Stage 3; conditions: 1 μM AT7867, Day 0 to Day 4 of Stage 3, standardized with GAPDH, versus DMSO (FIG. 6)
# Protocol: In Stage the cells were cultured in the presence of 1 μM AT7867. Cells were collected every day from Day 0 to Day 4 in Stage 3 and expression of PDX1, PTF1A, and NKX6.1 genes was measured by quantitative PCR. RNAs were extracted from the cells using RNeasy kit (Qiagen) and the reverse transcription reaction was performed with ReverTra Ace qPCR RT Master Mix (Toyobo) and oligo (dT) 20 primer. The quantitative PCR was performed with SYBR Premix Ex Taq II (Takara) using StepOnePlus™ Real-Time PCR System (Applied Biosystems). The gene expression was standardized with the expression of GAPDH gene and the relative gene expression was calculated from the relative standard curve (FIG. 6). […] PTF1A and NKX6.1 are transcription factors that indicate the differentiation of the cells into pancreatic bud cells
# [2] = system: PDX1+/NKX6.1− cells derived from iPS cell line (585A1); assay: Cell number count after Stage 3 culture with AT7867; conditions: 0.01 μM to 50 μM AT7867, 4 days, versus DMSO negative control (FIG. 2)
# Protocol: (§1) The medium in the cell culture obtained in Stage 2-3 was changed to Improved MEM Zinc Option medium (15×10^4/ml) supplemented with 100 ng/ml KGF, 0.2 μM LDN193189, 50 ng/ml EGF (R&D systems, Inc.), indicated concentrations (0.01 μM to 50 μM) of AT7867 (Selleck Chemicals), 1% B-27 (DMSO as negative control) and the cells were further cultured for 4 days.
# [3] = system: PDX1+ cells; assay: Immunostaining with anti-PDX1 and anti-Ki67 antibodies in Stage 3; conditions: 1 μM AT7867, 1 to 4 days after addition in Stage 3 (FIG. 3)
# Protocol: as §1
# [4] = system: PDX1+/NKX6.1+ cells; assay: Double staining with anti-PDX1 and anti-NKX6.1 antibodies (flow cytometry) after Stage 3; conditions: addition of AT7867, after Stage 3 (FIGS. 5A and B)
# Protocol: as §1
# [5] = system: NKX6.1+ cells; assay: Immunostaining with anti-NKX6.1 antibody after Stage 3; conditions: indicated concentrations of AT7867, after Stage 3 (FIG. 4A, 4B)
# Protocol: as §1
compound,measurement,setting,value
Clc1ccc(C2(c3ccc(-c4cn[nH]c4)cc3)CCNCC2)cc1 [AT7867],expression of NKX6.1,[1],increased over time
same,expression of PDX1,[1],increased over time
same,expression of PTF1A,[1],increased over time
same,number of cells obtained in Stage 3,[2],increased in a manner dependent on the concentration of AT7867
same,PDX1 status of proliferated (Ki67+) cells,[3],proliferated cells were positive for at least PDX1
same,PDX1+/NKX6.1+ cells,[4],increased by the addition of AT7867
same,cells positive for at least NKX6.1,[5],increased in a manner dependent on the concentration of AT7867
